Reference: patent US20150018396A1, “PREVENTION AND TREATMENT OF RESPIRATORY INFECTION WITH PEROXISOME PROLIFERATOR ACTIVATOR RECEPTOR DELTA AGONIST” (PRESIDENT AND FELLOWS OF HARVARD COLLEGE, priority 2012, published 2015)
Entries after “also recorded” stand apart in the source; their conditions may differ.

Tests used:
[1] = test system: alveolar macrophages; test: Fc-stimulated phagosomal ROS production ex vivo in isolated alveolar macrophages (FcOxyburst); parameters: species or system mouse; settings: wt and Ppar-δ mye−/− mice gavaged for 3 days
Experimental: (§1) Mice were infected with 5×10^5 CFU of S. pneumoniae. […] Twenty-four hours post-infection, lavage fluid was isolated and analyzed for bacterial counts. […] Mice were gavaged with GW501516 for three days. […] Alveolar macrophages were isolated and ROS was determined using FcOxyburst. Data are presented as mean±SEM. *p<0.05.
We next sought to explore the therapeutic potential of the Ppar-δ controlled phagosomal function in pathologies associated with infection. For this purpose, wt mice were infected with a higher dose of S. pneumoniae through nasal inhalation, which led to lethality in 75% of mice within 5 days post-injection (FIG. 5a). […]
Bacterial killing assays were used for in vitro bacterial killing^37,38. […] Colony forming units (CFU) were determined as a measure of bacterial survival. ROS assays were done using FcOxyburst (Invitrogen) according to manufacturers protocols and analyzed by fluorescence activated cell sorting (FACS). Phagocytosis and phagosome number were determined by FACS using Alexa Fluor 647 labeled heat killed S. pneumoniae^32. pH was determined as previously described^32. […] Macrophages were incubated with labeled bacteria and analyzed by FACS for FITC relative to Alexa Fluor 647 signal. ATP and lactate were measured using commercially available kits. […]

[2] = test system: S. pneumoniae; test: Survival in a mouse model of pneumonia (intranasal S. pneumoniae infection); format: in vivo; settings: wt C57BL/6 mice, 2 mg kg^−1 per day by gavage, 5×10^5 CFU S. pneumoniae
Experimental: as §1
We next sought to explore the therapeutic potential of the Ppar-δ controlled phagosomal function in pathologies associated with infection. For this purpose, wt mice were infected with a higher dose of S. pneumoniae through nasal inhalation, which led to lethality in 75% of mice within 5 days post-injection (FIG. 5a). […] Taken together, our data implicate the potential use of synthetic Ppar-δ agonists to improve the outcomes of bacteria infection, such as pneumonia.
Ppar-δ floxed animals were generated as described previously^33,34. Ppar-δ mice were crossed to lysozyme cre mice (Jackson laboratory) to generate Ppar-δ^mye−/− mice. Ppar-δ^fl/fl mice were used as wt controls. All mice were maintained on a C57BL/6 background. Mice used for survival studies in FIG. 5 were C57BL/6 mice purchased from Jackson Laboratory. Bone marrow from CSS-17 mice was provided by Dr. Colleen Croniger (Case Western Reserve University). For in vivo killing assays, mice were anesthetized with a ketamine/xylazine solution and infected intranasally with 10^6 CFU S. pneumoniae. […]

[3] = test system: Noxo1 promoter; test: Noxo1 promoter luciferase reporter in stably transformed wt and Ppar-δ−/− macrophage cell lines; format: cell-based, mouse; settings: Ppar-δ−/− macrophage cell lines vs wt
Experimental: (§2) FIGS. 3a-3c show the transcriptional regulation of macrophage phagosomal function by Ppar-δ. FIGS. 3a and 3b show the expression of genes involved in NADPH oxidase complexes in cultured macrophages and alveolar macrophages, respectively. Gene expression was determined by real-time PCR. […] RAW264.7 macrophages were transfected with a luciferase reporter driven by the 2 kb 5′-regulatory region of the Noxo1 or Nox2 gene. […] Transfection was done in stably transformed wt and Ppar-δ^−/− macrophage cell lines. Data are presented as mean±SEM. *p<0.05.
(§3) To elucidate downstream targets of Ppar-δ mediating phagosomal ROS production, expression of genes involved in this process was analyzed in stably transformed wt and Ppar-δ^−/− macrophages and in alveolar lavage cells from wt and Ppar-δ^mye−/− mice after S. pneumoniae infection. […] To determine whether members of the NADPH complex are transcriptional targets of Ppar-δ, we generated luciferase reporter constructs driven by 2 kb upstream promoters of Noxo1 and Nox2. […] Indeed, we found the expression of Ppar-δ and its known target Slc25a20 increased after bacteria infection (FIG. 7a).
Bone marrow-derived macrophages were differentiated in L929 conditioned media as previously described^14. Stables lines were created from bone marrow of Ppar-δ^mye−/− and control mouse lines using a CreJ2 viral system^35,36. […]

[4] = test system: Ppar-δ; test: Gene expression analyses of Balf cells by real-time PCR; format: in vivo, mouse; settings: mice gavaged for three days
Experimental: as §1
For gene expression analyses, we determined relative expression levels using SYBR Green-based real-time qPCR reactions. We used 36B4 expression levels for normalization. For in vitro analyses of infected macrophages, S. pneumoniae conjugated to magnetic beads were used during infection (see Bacterial Growth and Manipulation for details). Cells were infected for 1 hr with conjugated beads. At the end of the experiment, a magnet was used to separate cells that contained intracellular magnetic bacteria. These cells were used for expression analyses.

[5] = test system: Noxo1 promoter; test: Noxo1 promoter luciferase reporter in RAW macrophages; format: cell-based; settings: RAW267.4 macrophages, luciferase reporter driven by 2 kb 5′-regulatory region, treated 12 hours
Experimental: as §2, §3

What does the source list for `Cc1cc(SCc2sc(-c3ccc(C(F)(F)F)cc3)nc2C)ccc1OCC(=O)O` [GW501516]?
phagosome ROS production in alveolar macrophages [1]: increased ROS production in a Ppar-δ dependent manner; also recorded: increases phagosome ROS production; onset of death [2]: delayed onset of death; survival compared to vehicle-treated mice ([2]; 3 days prior to and every other day after infection): significant improvement in survival; ability to induce Noxo1 promoter activity in cells lacking Ppar-δ [3]: lost; expression of Ppar-δ in Balf cells [4]: increase; expression of Ppar-δ target gene Slc25a20 in Balf cells [4]: increase; level of Noxa1 mRNA in Balf cells [4]: increased; level of Noxo1 mRNA in Balf cells [4]: increased; promoter activity of Noxo1 [5]: increased; also recorded: able to increase activity of the promoter of Noxo1
